The text below walks through data of BindingDB's records for doi:10.1038/347146a0 (U. 109, 1990).

One test concerns the target D(3) dopamine receptor (Rattus norvegicus, UniProt P19020).
The next test deals with D(2) dopamine receptor (Rattus norvegicus, UniProt P61169).
Sequence of D(2) dopamine receptor (P61169 whole entry): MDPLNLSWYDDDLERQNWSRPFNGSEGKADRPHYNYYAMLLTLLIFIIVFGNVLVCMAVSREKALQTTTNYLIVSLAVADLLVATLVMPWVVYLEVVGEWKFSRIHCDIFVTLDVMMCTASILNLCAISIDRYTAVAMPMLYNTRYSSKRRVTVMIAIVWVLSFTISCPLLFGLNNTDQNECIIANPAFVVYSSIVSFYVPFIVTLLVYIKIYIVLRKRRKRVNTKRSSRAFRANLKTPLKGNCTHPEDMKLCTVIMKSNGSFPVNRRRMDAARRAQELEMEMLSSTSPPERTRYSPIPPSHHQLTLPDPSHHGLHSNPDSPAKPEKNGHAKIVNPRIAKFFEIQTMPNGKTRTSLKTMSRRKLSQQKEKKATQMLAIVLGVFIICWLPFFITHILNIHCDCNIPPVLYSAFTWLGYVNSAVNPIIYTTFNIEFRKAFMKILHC

Sequence of D(3) dopamine receptor (P19020 whole entry): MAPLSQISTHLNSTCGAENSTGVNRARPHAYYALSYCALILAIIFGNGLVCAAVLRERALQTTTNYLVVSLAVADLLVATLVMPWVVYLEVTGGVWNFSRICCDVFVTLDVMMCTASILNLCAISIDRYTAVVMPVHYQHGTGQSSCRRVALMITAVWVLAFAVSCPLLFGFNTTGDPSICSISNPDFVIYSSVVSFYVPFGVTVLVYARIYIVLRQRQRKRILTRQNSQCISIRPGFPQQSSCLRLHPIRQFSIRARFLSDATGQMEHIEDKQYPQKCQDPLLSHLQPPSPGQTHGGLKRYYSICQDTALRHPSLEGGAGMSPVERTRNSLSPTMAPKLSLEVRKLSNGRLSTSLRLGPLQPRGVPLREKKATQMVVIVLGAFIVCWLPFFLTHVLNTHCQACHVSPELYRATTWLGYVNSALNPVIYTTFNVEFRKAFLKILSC

In general, Ki refers to the dissociation constant of the complex between target and ligand, obtained from inhibition or displacement. As for `CCCN(CCC)C1C=Cc2c(OC)cccc2C1C` (stereo unspecified) [CAS_5311190], the figures for the Ki at D(3) dopamine receptor and on D(2) dopamine receptor were 9.2 nM and 40 nM, respectively.
For `Nc1nc2c(ncn2[C@@H]2O[C@H](COP(=O)(O)OP(=O)(O)NP(=O)(O)O)[C@@H](O)[C@H]2O)c(=O)[nH]1` [Guanylyl imidodiphosphate] the same measures were 27 nM and 1700 nM.
For the compound `CCS(=O)(=O)c1cc(C(=O)NCC2CCCN2CC2CC2)c(OC)cc1I` (stereo unspecified) [NSC_122245], the Ki at D(3) dopamine receptor was 1.2 nM; at D(2) dopamine receptor, 0.61 nM.
